Data reported in US20040266623A1, “SYNERGISTIC QUINCLORAC HERBICIDAL COMPOSITIONS” (priority 2003, published 2004).

Tests used:
Test in all cases: Greenhouse pot test, postemergent spray, visual control rating converted to percent control
Type in all cases: in vivo
[1] = system: plantain; conditions: for Control (1-9) Plantain: scale 1=no control, 9=death of plant
Outline: (§1)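 Percent control derives from a visual 1–9 scale where 1 means no control and 9 plant death, scored from 24 hours through 21 days after treatment. Sprays were applied at 43.46 gallons of solution/acre to greenhouse-grown pots.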

[2] = system: dandelion; conditions: for Control (1-9) Dandelion: scale 1=no control, 9=death of plant
Outline: as §1

[3] = system: white clover; conditions: for Control (1-9) Clover: scale 1=no control, 9=death of plant
Outline: as §1

[4] = system: crabgrass; conditions: for Control (1-9) Crabgrass: scale 1=no control, 9=death of plant
Outline: as §1

SMILES: Cc1nn(-c2cc(NS(C)(=O)=O)c(Cl)cc2Cl)c(=O)n1C(F)F [Sulfentrazone @ 0.03 lbs/A]
- % Control Plantain ([1]; Test 3, 7 DAT): 88.9%
- Control (1-9) Plantain ([1]; Test 3, 7 DAT): 8
- % Control Plantain ([1]; Test 3, 14 DAT): 88.9%
- Control (1-9) Plantain ([1]; Test 3, 14 DAT): 8
- % Control Plantain ([1]; Test 3, 21 DAT): 100.0%
- Control (1-9) Plantain ([1]; Test 3, 21 DAT): 9
- % Control Plantain ([1]; Test 3, 24 HAT): 44.4%
- Control (1-9) Plantain ([1]; Test 3, 24 HAT): 4
- % Control Plantain ([1]; Test 3, 72 HAT): 66.7%
- Control (1-9) Plantain ([1]; Test 3, 72 HAT): 6
- % Control Dandelion ([2]; Test 3, 7 DAT): 66.7%
- Control (1-9) Dandelion ([2]; Test 3, 7 DAT): 6
- % Control Dandelion ([2]; Test 3, 14 DAT): 77.8%
- Control (1-9) Dandelion ([2]; Test 3, 14 DAT): 7
- % Control Dandelion ([2]; Test 3, 21 DAT): 77.8%
- Control (1-9) Dandelion ([2]; Test 3, 21 DAT): 7
- % Control Dandelion ([2]; Test 3, 24 HAT): 33.3%
- Control (1-9) Dandelion ([2]; Test 3, 24 HAT): 3
- % Control Dandelion ([2]; Test 3, 72 HAT): 55.6%
- Control (1-9) Dandelion ([2]; Test 3, 72 HAT): 5
- % Control Clover ([3]; Test 3, 7 DAT): 44.4%
- Control (1-9) Clover ([3]; Test 3, 7 DAT): 4
- % Control Clover ([3]; Test 3, 14 DAT): 55.6%
- Control (1-9) Clover ([3]; Test 3, 14 DAT): 5
- % Control Clover ([3]; Test 3, 21 DAT): 55.6%
- Control (1-9) Clover ([3]; Test 3, 21 DAT): 5
- % Control Clover ([3]; Test 3, 24 HAT): 22.2%
- Control (1-9) Clover ([3]; Test 3, 24 HAT): 2
- % Control Clover ([3]; Test 3, 72 HAT): 33.3%
- Control (1-9) Clover ([3]; Test 3, 72 HAT): 3
- % Control Crabgrass ([4]; Test 3, 7 DAT): 55.6%
- Control (1-9) Crabgrass ([4]; Test 3, 7 DAT): 5
- % Control Crabgrass ([4]; Test 3, 14 DAT): 55.6%
- Control (1-9) Crabgrass ([4]; Test 3, 14 DAT): 5
- % Control Crabgrass ([4]; Test 3, 21 DAT): 44.4%
- Control (1-9) Crabgrass ([4]; Test 3, 21 DAT): 4
- % Control Crabgrass ([4]; Test 3, 24 HAT): 11.1%
- Control (1-9) Crabgrass ([4]; Test 3, 24 HAT): 1
- % Control Crabgrass ([4]; Test 3, 72 HAT): 44.4%
- Control (1-9) Crabgrass ([4]; Test 3, 72 HAT): 4
